Results: patent US20090074878A1, “Non-Toxic Water Soluble Inorganice Antimicrobal Polymer and Related Methods” (priority 2005, published 2009)

Tested on: E coli O157:H7
Assay: Effect of pH on Concrobium activity, lysis under light microscope (Example 5)
Format: cell-based
Details: one million CFU
Procedure: One million CFU of E coli O157:H7 were incubated with the following and samples of each were observed under a light microscope:
1. 1 mL of Concrobium, normal saline and 0.1 N (normal) sodium hydroxide 2. 1 mL of Concrobium and normal saline 3. 1 mL normal saline

For `[Na+].[OH-]` [sodium hydroxide], which “lysing effect on E coli in suspension” value is on record?
The value was “lysed the E. coli in suspension”.
